Results published in patent US20150010928A1, “MEANS AND METHODS FOR ASSESSING AN ENDOCRINE DISEASE OR DISORDER” (priority 2012, published 2015).
Marks after values point to notes of the source that are not given here.

Test system: male rats
Test: Plasma metabolite profiling (GC-MS, LC-MS, SPE-LC-MS) in male rats dosed once daily over 28 days (OECD 407)
Assay type: in vivo, rat
Settings: high dose; for 3-Hydroxybutyrate, ratio versus control / 18-Hydroxy-11-deoxycorticosterone, ratio versus control / Ceramide (d18:1, C24:1), ratio versus control / Coenzyme Q10, ratio versus control / Corticosterone, ratio versus control / Metanephrine, ratio versus control / Tricosanoic acid (C23:0), ratio versus control / alpha-Tocopherol, ratio versus control / trans-4-Hydroxyproline, ratio versus control: male rats, plasma
Outline: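 Polar and lipid fractions profiled by GC-MS and LC-MS/MRM, steroids by online SPE-LC-MS; pool-normalized data compared to controls by Welch test as treatment ratios and p-values.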

CC(=O)O[C@]1(C(C)=O)CC[C@H]2[C@@H]3C=C(Cl)C4=CC(=O)[C@@H]5C[C@@H]5[C@]4(C)[C@H]3CC[C@@]21C [Cyproteron Acetate]
21-Hydroxyprogesterone (11-Deoxycorticosterone) (m14, Table 11b): 0.41 *
Citrate (m14, Table 11b): 0.73 *
Coenzyme Q9 (m14, Table 11b): 0.74 *
Coenzyme Q10 (m14, Table 11b): 0.86^
Corticosterone (m14, Table 11b): 0.01 *
Metanephrine (m14, Table 11b): 0.66 *
Palmitoleic acid (C16:cis[9]1) (m14, Table 11b): 0.74 *
Phosphatidylcholine (C16:0, C16:0) (m14, Table 11b): 0.87 *
Progesterone (m14, Table 11b): 0.54 *
trans-4-Hydroxyproline (m14, Table 11b): 0.44 *
3-Methoxytyrosine (m28, Table 11a): 2.05 *
3-O-Methylsphingosine (d18:1) (m28, Table 11a): 2.98 *
5-O-Methylsphingosine (d18:1) (m28, Table 11a): 2.54 *
Androstenedione (m28, Table 11a): 0.94^
Arachidonic acid (C20:cis[5,8,11,14]4) (m28, Table 11a): 2.35 *
Behenic acid (C22:0) (m28, Table 11a): 1.57 *
Cholesterol (m28, Table 11a): 1.97 *
Cysteine (m28, Table 11a): 1.54 *
Dodecanol (m28, Table 11a): 1.52 *
Eicosanoic acid (C20:0) (m28, Table 11a): 1.71 *
Galactose, lipid fraction (m28, Table 11a): 1.68 *
Glycerol phosphate, lipid fraction (m28, Table 11a): 2.16 *
Histidine (m28, Table 11a): 1.37 *
Indole-3-lactic acid (m28, Table 11a): 1.15 *
Lignoceric acid (C24:0) (m28, Table 11a): 1.9 *
Nervonic acid (C24:cis[15]1) (m28, Table 11a): 2.83 *
Noradrenaline (Norepinephrine) (m28, Table 11a): 1.39 *
Phosphate, lipid fraction (m28, Table 11a): 1.86 *
Phosphatidylcholine (C18:0, C18:2) (m28, Table 11a): 1.03^
Phosphatidylcholine (C18:0, C20:3) (m28, Table 11a): 1.18 *
Phosphatidylcholine (C18:0, C22:6) (m28, Table 11a): 1.67 *
Phosphatidylcholine (C18:0,C18:1) (m28, Table 11a): 1.55*
Phytosphingosine (m28, Table 11a): 1.68 *
Stearic acid (C18:0) (m28, Table 11a): 2.71 *
Testosterone (m28, Table 11a): 0.56^
Threonine (m28, Table 11a): 1.73 *
Tricosanoic acid (C23:0) (m28, Table 11a): 1.39 *
Tryptophan (m28, Table 11a): 1.14 *
alpha-Tocopherol (m28, Table 11a): 1.44 *
beta-Sitosterol (m28, Table 11a): 2.6 *
dihomo-gamma-Linolenic acid (C20:cis[8,11,14]3) (m28, Table 11a): 4.01 *
erythro-Sphingosine (d18:1) (m28, Table 11a): 2.2 *
myo-Inositol-2-phosphate, lipid fraction (m28, Table 11a): 3.26 *
threo-Sphingosine (d18:1) (m28, Table 11a): 2.13 *
3-Hydroxybutyrate (m28, Table 11b): 0.68 *
4-Hydroxy-3-methoxyphenylglycol (HMPG) (m28, Table 11b): 0.82 *
18-Hydroxy-11-deoxycorticosterone (m28, Table 11b): 0 *
21-Hydroxyprogesterone (11-Deoxycorticosterone) (m28, Table 11b): 0.01 *
Citrate (m28, Table 11b): 0.81
Coenzyme Q9 (m28, Table 11b): 0.59 *
Coenzyme Q10 (m28, Table 11b): 0.7 *
Corticosterone (m28, Table 11b): 0 *
Metanephrine (m28, Table 11b): 0.58 *
Palmitoleic acid (C16:cis[9]1) (m28, Table 11b): 1.42 *
Phosphatidylcholine (C16:0, C16:0) (m28, Table 11b): 0.79 *
Progesterone (m28, Table 11b): 0.03 *
trans-4-Hydroxyproline (m28, Table 11b): 0.52 *
3-Hydroxybutyrate, ratio versus control (day 7): 0.58 *
18-Hydroxy-11-deoxycorticosterone, ratio versus control (day 7): 0.08 *
Ceramide (d18:1, C24:1), ratio versus control (day 7): 1
Coenzyme Q10, ratio versus control (day 7): 0.49 *
Corticosterone, ratio versus control (day 7): 0.04 *
Metanephrine, ratio versus control (day 7): 0.91
Tricosanoic acid (C23:0), ratio versus control (day 7): 1.48 *
alpha-Tocopherol, ratio versus control (day 7): 1.22 *
trans-4-Hydroxyproline, ratio versus control (day 7): 0.53 *
3-Hydroxybutyrate, ratio versus control (day 14): 0.73 *
18-Hydroxy-11-deoxycorticosterone, ratio versus control (day 14): 0.08 *
Ceramide (d18:1, C24:1), ratio versus control (day 14): 1.47 *
Coenzyme Q10, ratio versus control (day 14): 0.86
Corticosterone, ratio versus control (day 14): 0.01 *
Metanephrine, ratio versus control (day 14): 0.66 *
Tricosanoic acid (C23:0), ratio versus control (day 14): 1.3 *
alpha-Tocopherol, ratio versus control (day 14): 1.32 *
trans-4-Hydroxyproline, ratio versus control (day 14): 0.44 *
3-Hydroxybutyrate, ratio versus control (day 28): 0.68 *
18-Hydroxy-11-deoxycorticosterone, ratio versus control (day 28): 0.02 *
Ceramide (d18:1, C24:1), ratio versus control (day 28): 2.22 *
Coenzyme Q10, ratio versus control (day 28): 0.7 *
Corticosterone, ratio versus control (day 28): 0 *
Metanephrine, ratio versus control (day 28): 0.58 *
Tricosanoic acid (C23:0), ratio versus control (day 28): 1.39 *
alpha-Tocopherol, ratio versus control (day 28): 1.44 *
trans-4-Hydroxyproline, ratio versus control (day 28): 0.52 *
